# Measured values as given in patent publication US7034020B2, “Derivatives of butyric acid and uses thereof” (The University of Arkansas for Medical Science, priority 1999, dated 2006).
# Assays:
# [1] = Toxicity in mice treated with MEB; format: in vivo; details: dose approximated 0.7 g/kg/day
# [2] = test system: KLH-specific Th1 cells (clone D3); experiment: IL-2-induced proliferation of Th1 cells in the presence of butyrate derivatives; format: cell-based, C57BL/10 mice
# Procedure: KLH-specific Th1 cells (clone D3) are stimulated with IL-2 (10% Con A CM) in the presence of different concentrations of n-butyrate or butyrate derivatives. In FIG. 2A Th1 cell proliferation is measured after 2 days. In FIG. 2B, the inhibitors are washed out after 24 hours, and the Th1 cells reincubated with fresh IL-2-containing medium. Proliferation of the Th1 cells restimulated with IL-2 in the absence of the inhibitors is measured after an additional 2 days. This experiment was repeated three times, and the proliferation data represents the means of the […] experiments.
# The KLH-specific were developed in C57BL/10 mice, and characterized as Th1 clones based on their ability to secrete IL-2, but not IL-4. The Th1 clones were passed every 7–14 days using KLH, irradiated syngeneic spleen cells as antigen-presenting cells (APC), and IL-2-containing Con A CM using a previously described protocol (Gilbert et al., 1990).
# To test the ability of the butyrate derivatives to suppress T cell activity […], Th1 cells [(5×10^4 cells/well in 96 well plates (Costar)] are stimulated with 10% IL-2-containing Con A CM in the presence of various concentrations of different butyrate derivatives. In some cultures, Th1 cell proliferation is measured after two days. In other cultures, the Th1 cells are washed after 24 hours, and fresh IL-2-containing medium is added. Proliferation is measured in the washed, IL-2-restimulated cultures after an additional 2 days.
# [3] = test system: isotype-specific anti-ovalbumin antibody; experiment: Isotype-specific anti-ovalbumin antibody after a single dose of MEB, primary and secondary response; format: in vivo, C57BL/10 mice
# Procedure: C57BL/10 mice are injected ip with ovalbumin/CFA on day 0, followed by a single ip injection of saline or MEB (0.15 mmol) on Days 2 or 3. The mice are reimmunized with ovalbumin sc on Day 10. Isotype-specific anti-ovalbumin antibody generated during the primary immune response (FIG. 4A), and the secondary immune response (FIG. 4B) are measured in the serum at day 10 and day 16, respectively. (FIG. 4C). […] This experiment was repeated, and the proliferation data represents the means of the two experiments.
# The butyrate derivatives are tested for their ability to suppress lymphocyte activity in vivo. C57BL/10 mice (5 mice/group) are injected ip with 100 μg of ovalbumin in conjunction with complete Freund's adjuvant on Day 0. In one experiment, the mice also receive one ip injection per day of the butyrate derivatives (0.091 mmol) on Days 1–3. Serum samples are obtained 10 days after the initial injection with ovalbumin, and tested for the presence of anti-ovalbumin antibodies using an ELISA. To perform the ELISA 96 well plates (Costar 3595) are first incubated with ovalbumin (100 μl/well of 100 μg/ml in PBS) overnight at 4° C. The plates are then washed 4 times with PBS and 0.5% Tween 20, blocked with 1% fetal calf serum for 30 minutes at 37° C., and washed again. Individual serum samples are added (diluted 1/100 or 1/1000 in PBS), and the plates are incubated for 2 hours at 20° C. The plates were next washed 7 times with PBS/Tween, and alkaline phosphate (AP)-labeled goat anti-mouse IgG, IgA, IgM (H+L) (Zymed) is added ( 1/1000) for 1 hour at 20° C. The plates are again washed 7 times with PBS/Tween, alkaline phosphate substrate (1 mg/ml) is added. After 10 minutes, Ig levels are quantified by an ELISA reader (absorbance 405 nm). The concentration of anti-ovalbumin is determined by comparison with a standard curve obtained using mouse anti-ovalbumin antibody (Sigma; St. Louis, Mo.). To measure isotype-specific anti-ovalbumin antibodies, serum samples (diluted at 1/300 or 1/1000) are incubated on the ovalbumin-coated plates as described above. After washing, biotinylated detecting antibodies directed against mouse IgG2a (rat IgG1, clone R19–15), IgG2b (rat IgG2a, clone R12–3) IgG1 (rat IgG1, clone A85–1), or IgM (rat IgG2a, clone R6–60.2) (all purchased from PharMingen, La Jolla, Calif.) are added at 2.5 μg/ml for one hour at 20° C. followed by AP-labeled ExtrAvidin (Sigma) for one hour at 20° C. and AP substrate. Ig levels are presented as OD measurements. […]
# [4] = test system: total anti-ovalbumin antibody in the serum; experiment: Primary anti-ovalbumin antibody production in vivo (ELISA), derivatives on Days 1–3; design: species or system C57BL/10 mice; details: 0.091 mmol ip Days 1–3; serum day 10
# Procedure: C57BL/10 mice are injected ip on Day 0 with ovalbumin followed by ip injections of saline, or one of three different butyrate derivatives on Days 1–3.
# The butyrate derivatives are tested for their ability to suppress lymphocyte activity in vivo. C57BL/10 mice (5 mice/group) are injected ip with 100 μg of ovalbumin in conjunction with complete Freund's adjuvant on Day 0. In one experiment, the mice also receive one ip injection per day of the butyrate derivatives (0.091 mmol) on Days 1–3. Serum samples are obtained 10 days after the initial injection with ovalbumin, and tested for the presence of anti-ovalbumin antibodies using an ELISA. To perform the ELISA 96 well plates (Costar 3595) are first incubated with ovalbumin (100 μl/well of 100 μg/ml in PBS) overnight at 4° C. The plates are then washed 4 times with PBS and 0.5% Tween 20, blocked with 1% fetal calf serum for 30 minutes at 37° C., and washed again. Individual serum samples are added (diluted 1/100 or 1/1000 in PBS), and the plates are incubated for 2 hours at 20° C. The plates were next washed 7 times with PBS/Tween, and alkaline phosphate (AP)-labeled goat anti-mouse IgG, IgA, IgM (H+L) (Zymed) is added ( 1/1000) for 1 hour at 20° C. The plates are again washed 7 times with PBS/Tween, alkaline phosphate substrate (1 mg/ml) is added. After 10 minutes, Ig levels are quantified by an ELISA reader (absorbance 405 nm). The concentration of anti-ovalbumin is determined by comparison with a standard curve obtained using mouse anti-ovalbumin antibody (Sigma; St. Louis, Mo.). To measure isotype-specific anti-ovalbumin antibodies, serum samples (diluted at 1/300 or 1/1000) are incubated on the ovalbumin-coated plates as described above. […] Ig levels are presented as OD measurements.
# [5] = single ip dose 0.15 mmol on Day 2 or 3, serum day 10
# [6] = single ip dose 0.15 mmol on day 2, serum day 10
# [7] = single ip dose 0.15 mmol on day 2 or day 3, reimmunized Day 10, serum day 16
# [8] = single ip dose 0.15 mmol, reimmunized Day 10, serum day 16
smiles,measurement,setting,value
"CCCC(=O)OCCN1CCOCC1.Cl [MEB, 2-(4-Morpholinyl)ethyl butyrate hydrochloride]",Toxicity,[1],No toxicity
same,Suppression of IL-2-induced proliferation of Th1 cells,"[2]; 10% Con A CM, various concentrations, proliferation after 2 days",comparable to n-butyrate
same,Proliferation to IL-2 after compounds are washed out,"[2]; washed after 24 hours, fresh IL-2 medium, additional 2 days",regained their ability to proliferate to IL-2
same,"IgG2a anti-ovalbumin antibody, primary response",[3]; [5],significantly decreased
same,"IgG2b anti-ovalbumin antibody, primary response",[3]; [5],significantly decreased
same,"IgG, anti-ovalbumin antibody, primary response",[3]; [6],"decreased, albeit not dramatically"
same,"IgM anti-ovalbumin antibody, primary response",[3]; [6],"decreased, albeit not dramatically"
same,"Decrease of IgG2a anti-ovalbumin antibody, secondary response, compared to controls",[3]; [7],80%
same,"Decrease of IgG2b anti-ovalbumin antibody, secondary response, compared to controls",[3]; [7],80%
same,"IgG1 anti-ovalbumin production, secondary response",[3]; [8],significantly decreased
same,"IgM anti-ovalbumin production, secondary response",[3]; [8],unaffected
same,Decrease of primary anti-ovalbumin antibody response versus saline,[4],65%
